Test results as given in patent US20070053841A1, “USE OF 1,1,1,2-TETRAFLUOROETHANE FOR MEASURING LUNG FUNCTION, ESPECIALLY FOR DETERMINING THE FUNCTIONAL RESIDUAL CAPACITY (FRC) OF THE LUNGS” (Drager Medical AG & Co. KG, priority 2005, published 2007).

Test: blood-gas partition coefficient L (solubility of the gas in the blood)
Type: physicochemical
Details: gas 1 = R 134a, gas 2 = R 227; equilibrium between gas dissolved in blood and gas phase
Description: The solubility of gases in the blood can be described by the blood-gas partition coefficient L, which describes the ratio of the volume percentages between gas dissolved in the blood and gas present in the gas phase. The prerequisite for this is the presence of an equilibrium with identical partial pressures of the gas in the phase in which it is dissolved in the blood and in the gas phase. Lowest possible solubility of the tracer gas in the blood is desirable for the lung function diagnostic tests and especially for the determination of the FRC, because what we wish to ultimately determine is the lung volume rather than the quantity of blood in the body. By using at least two gases with different solubilities in blood, the FRC measurement can be corrected with respect to the solubility in blood. The subscripts 1 and 2 below designate the two gases, which may stand, e.g., for R 134a and R 227. It can be assumed below, without restricting the generality, that L1>L2, so that the FRC measured with gas 1 (for example, R 134a) will be greater than that determined with gas 2 (for example, R 227). The blood volume can be determined from the difference of the FRC values: [formula] […] In case of R 134a and R 227, the coefficient L1/L2 is approx. 4, so that the measured difference in FRC is divided by 3.

FCC(F)(F)F [R 134a, 1,1,1,2-tetrafluoroethane]
coefficient L1/L2 (ratio of blood-gas partition coefficients): approx. 4
